What was measured:
[1] = molecular target: memapsin 2 (Homo sapiens, UniProt P56817); experiment: Inhibition of memapsin 2 beta-secretase activity (fluorogenic substrate FS-2); type: biochemical; details: pH 4, 37° C., read-out: M2 Ki
How it was run: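 Memapsin 2 pre-incubated with compound for 20 min at pH 4, 37° C. Reaction started with fluorogenic substrate FS-2, […], derived from Swedish-variant APP beta-secretase site; inhibition measured from fluorescence.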

[2] = molecular target: cathepsin D (Homo sapiens, UniProt P07339); experiment: Inhibition of cathepsin D activity (MALDI-TOF, substrate ELDLAVEFWHDR); type: biochemical; details: substrate peptide ELDLAVEFWHDR, pH 4.1, 37 degrees C, read-out: CD Ki
cathepsin D, sequence (P07339 65-412, species assumed): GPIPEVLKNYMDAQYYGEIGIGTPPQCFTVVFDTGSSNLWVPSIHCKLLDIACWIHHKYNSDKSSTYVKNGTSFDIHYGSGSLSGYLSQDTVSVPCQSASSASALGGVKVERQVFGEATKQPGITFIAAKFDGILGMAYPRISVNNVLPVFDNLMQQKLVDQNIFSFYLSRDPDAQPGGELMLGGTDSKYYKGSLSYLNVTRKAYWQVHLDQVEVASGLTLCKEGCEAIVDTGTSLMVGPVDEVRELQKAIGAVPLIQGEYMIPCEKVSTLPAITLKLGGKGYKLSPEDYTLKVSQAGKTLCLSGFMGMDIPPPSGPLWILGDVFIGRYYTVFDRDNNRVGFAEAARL
Procedure: [The source words this procedure for another target and reports this target under the same test.] A substrate peptide NH3-ELDLAVEFWHDR-CO2 (SEQ ID NO.: 1) was dissolved at 2 mg/mL in 10% glacial acetic acid and diluted into 0.009M NaOH to obtain μM concentration at pH 4.1. After equilibration at 37 degrees C., the reactions were initiated by the addition of an aliquot of memapsin 2. Aliquots were removed at time intervals, and combined with an equal volume of MALDI-TOF matrix (α-hydroxycinnamic acid in acetone, 20 mg/mL) and immediately spotted in duplicate onto a stainless-steel MALDI sample plate. MALDI-TOF mass spectrometry was performed on a PE Biosystems Voyager DE. The instrument was operated at 25,000 accelerating volts in positive mode with a 150 ns delay. Ions with a mass-to-charge ratio (m/z) were detected in the range of 650-2000 atomic mass units. Data were analyzed by the Voyager Data Explorer module to obtain ion intensity data for mass species of substrates and corresponding products in a given mixture. Relative product formation was calculated as the ratio of signal intensity of the product to the sum of signal intensities of both product and the corresponding substrate. Relative product formed per unit time was obtained from non-linear regression analysis of the data representing the initial 15% formation of product using the model:
where k was the relative hydrolytic rate constant and T was time in seconds. Initial rates were expressed relative to uninhibited controls and fit to a tight-binding model of competitive inhibition as above.

[3] = molecular target: T1, memapsin 2 (Cricetulus griseus, UniProt G3IAK4); experiment: Cellular Aβ IC50 determination (Aβ40 sandwich ELISA); type: cell-based, Chinese hamster; details: CHO cells over-expressing human APP695 with London and Swedish mutations, 24 h, read-out: M2 IC50
T1 construct: endogenous in cells; host or cells: Chinese hamster ovary cells over-expressing human APP695 (London + Swedish)
T1 sequence (G3IAK4 22-501): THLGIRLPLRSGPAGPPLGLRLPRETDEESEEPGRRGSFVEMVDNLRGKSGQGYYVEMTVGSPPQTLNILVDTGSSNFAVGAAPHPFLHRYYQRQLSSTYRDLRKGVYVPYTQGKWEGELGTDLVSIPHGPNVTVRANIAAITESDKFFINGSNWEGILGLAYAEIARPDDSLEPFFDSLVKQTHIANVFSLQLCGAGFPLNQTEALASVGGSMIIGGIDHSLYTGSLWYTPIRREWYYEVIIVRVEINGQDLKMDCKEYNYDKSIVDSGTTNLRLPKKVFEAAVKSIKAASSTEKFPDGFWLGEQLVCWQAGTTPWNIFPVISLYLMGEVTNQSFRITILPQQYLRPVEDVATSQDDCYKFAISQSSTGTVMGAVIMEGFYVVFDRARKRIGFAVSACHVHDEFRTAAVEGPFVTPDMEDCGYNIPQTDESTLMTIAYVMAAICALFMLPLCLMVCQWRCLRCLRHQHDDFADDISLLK
How it was run: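 CHO cells overexpressing human APP695 (London and Swedish mutations) treated 48 h post-seeding with serially diluted compounds (top near 4 μM, 0.4% DMSO), 24 h at 37° C, 5% CO2. Medium Aβ40 measured by sandwich ELISA; levels relative to control fitted to 4-parameter IC50 model.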

[4] = molecular target: T2, CYP3A4 (Homo sapiens, UniProt P08684); experiment: CYP3A4 inhibition (midazolam metabolism in human liver microsomes); type: in vitro ADME; details: substrate midazolam, read-out: CYP 3A4Ki
T2 construct: host or cells: human liver microsomes
T2 sequence (P08684 whole entry): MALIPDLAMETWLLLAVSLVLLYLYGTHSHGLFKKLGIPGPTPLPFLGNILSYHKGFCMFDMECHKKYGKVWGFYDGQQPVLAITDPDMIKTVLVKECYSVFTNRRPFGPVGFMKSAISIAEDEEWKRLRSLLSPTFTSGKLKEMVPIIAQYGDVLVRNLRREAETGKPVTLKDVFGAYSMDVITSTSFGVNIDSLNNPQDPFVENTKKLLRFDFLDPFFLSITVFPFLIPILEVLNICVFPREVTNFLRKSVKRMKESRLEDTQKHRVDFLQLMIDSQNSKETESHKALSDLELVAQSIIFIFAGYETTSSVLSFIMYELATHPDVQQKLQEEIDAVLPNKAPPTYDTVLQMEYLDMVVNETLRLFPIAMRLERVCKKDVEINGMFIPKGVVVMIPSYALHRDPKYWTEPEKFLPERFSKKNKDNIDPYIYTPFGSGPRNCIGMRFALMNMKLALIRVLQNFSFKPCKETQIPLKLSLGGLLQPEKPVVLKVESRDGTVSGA
Procedure: To evaluate the drug-drug interaction potential for compounds, the potency to inhibit the major metabolic cytochrome CYP450 isoform 3A4 was assessed. The inhibition constant Ki was determined for inhibition of the metabolism of midazolam, a CYP3A4 substrate.
CYP3A4 Ki assays were performed following a recently published protocol with slight modifications (Di, L., Kerns, E. H., Li, S. Q., and Carter, G. T. (2007) Comparison of cytochrome P450 inhibition assays for drug discovery using human liver microsomes with LC-MS, rhCYP450 isozymes with fluorescence, and double cocktail with LC-MS. International Journal of Pharmaceutics 335: 1-11). The P450 inhibition assay was performed in 96-well plates at 37.2° C. in a shaking incubator. The compounds were diluted from 5 mM stocks in 100% DMSO and incubated at seven final concentrations from 0.078 to 10 μM (0.1% DMSO in each final incubation), with human liver microsomes (HLM) at a final protein concentration of 0.1 mg/mL protein and a substrate concentration ranging from 1.25 to 10 μM.
The assay was standardized for both phosphate buffer (100 mM, pH 7.4) and the NADPH regenerating system (MgCl2, 3.3 mM; G6P, 3.3 mM; G6PD, 1 U/ml; NADP+, 1.3 mM). Eight replicate control samples (0.1% DMSO, no compound) were prepared. Assays (200 μL) were set up by mixing HLM+substrate stock, 10 μL of test article in 2% DMSO, and the substrate before initiating the reaction with the addition of the regenerating system mixture. Reactions were quenched following incubation for 20, 30 and 40 minutes as described following.
After incubation for the specified time in a humidified shaking incubator, 20 μL of the reaction mixture was removed and the reactions were terminated by adding 200 μL of cold acetonitrile. Samples were centrifuged at 1000×g for 15 minutes in Solvinert filter plate. The receptor plate was dried via speed vacuum at 40° C. The sample was reconstituted with a reconstitution buffer composed of 10% acetonitrile, 10% DMSO, 80% H2O with an internal standard added at a concentration of 100 ng/ml. MS-Analysis was completed using LC-MS/MS. Formation of 1′-hydroxymidazolam was measured by monitoring a specific SRM (342>203) transition for the CYP3A4 metabolite.
Data were expressed as the relative quantity of midazolam metabolite relative to control incubations. Initial velocities were obtained by multiplying the relative quantity by the initial substrate concentration and dividing by the incubation duration. Data were transformed to inverse of inivital velocity and expressed vs. inhibitor concentration [I] for determination of Ki by the Dixon method (Dixon, M. (1953) Biochemical Journal 55: 170-171) using where intercept [I]=−Ki was determined at multiple substrate concentrations.

[5] = Hepatic intrinsic clearance in liver microsomes; type: in vitro ADME; details: human, pH 7.4, human liver microsomes, in vitro clearance, read-out: HLM CL
Procedure: To 500 μl of 200 mM Na^+K^+phosphate buffer (pH 7.4), 100 μl of 1 mM EDTA solution was added followed by 100 μl of 2 mg protein/ml human liver microsomes. A 10 μl aliquot of test compound (20 mM stock in 50% acetonitrile) was diluted further with 40 μl of H2O (total assay volume […]. Assay mixture is incubated for 5 minutes at 37° C. The assay was initiated by addition of 250 μl of 4 mM NADPH solution. Incubation was continued at 37° C. Separate reaction mixtures were prepared for 0, 5, 10, 20, and 30 min durations. Individual reactions were halted by addition of 150 μl of 100% acetonitrile. Internal standard (10 μl of 100 ng/ml diazepam solution) was added. Concentration of the test compound in each separate reaction was measured using LC/MS/MS and a standard curve for the test compound according to standard procedures.
The hepatic intrinsic clearance in liver microsome was determined by the following procedure described by Davies and Morris (Davies, B. and Morris, T. (19930) Physiological parameters in laboratory animals and humans. Pharm Res. 10:1093-1095) detailing the relationship of in vitro clearance to physiological parameters in animals and human subjects.
The amount of compound remaining at each time point was expressed relative to the amount present in the initial (0 min) incubation. The relationship of relative amount vs. time was used to determine the half life of the compound in the microsome assay. The concentration independent rate constant, k1, was determined from rectangular hyperbolic fit:
where T is time (in minutes), from the relationship of relative amount vs. time. Alternatively, k1 was determined from a transform of the equation, where
Conversion to in vivo clearance was obtained from the relation (Davies and Morris, 1993):
where v=velocity of metabolism, [S] is the concentration of the compound, and volumes are expressed in mL.

memapsin 2 (Homo sapiens, UniProt P56817), sequence (P56817 46-501): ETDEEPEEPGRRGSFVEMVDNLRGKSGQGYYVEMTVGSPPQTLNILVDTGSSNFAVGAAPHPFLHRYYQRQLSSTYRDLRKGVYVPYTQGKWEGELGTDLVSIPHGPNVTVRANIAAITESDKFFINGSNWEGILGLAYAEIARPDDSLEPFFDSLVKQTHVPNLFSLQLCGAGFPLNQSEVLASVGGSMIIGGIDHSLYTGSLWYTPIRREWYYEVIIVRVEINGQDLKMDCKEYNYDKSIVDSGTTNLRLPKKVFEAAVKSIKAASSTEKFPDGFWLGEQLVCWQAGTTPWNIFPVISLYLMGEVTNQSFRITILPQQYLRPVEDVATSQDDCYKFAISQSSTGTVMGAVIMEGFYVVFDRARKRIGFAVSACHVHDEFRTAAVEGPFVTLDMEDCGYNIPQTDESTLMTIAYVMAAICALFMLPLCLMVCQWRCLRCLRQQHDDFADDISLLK

SMILES	Ki [1] [nM]	Ki [2] [nM]	IC50 [3] [nM]	Ki [4] [nM]	CLint scaled at 200 μM [5] [mL/min/kg]
Cc1csc([C@H]2CCCN2C(=O)c2cc(C(=O)N[C@@H](Cc3ccccc3)[C@H](O)[C@H]3CCCN3)cc(N3CCCCS3(=O)=O)c2)n1 [1-78, N-((1R,2S)-1-hydroxy-3-phenyl-1-((R)-pyrrolidin-2-yl)propan-2-yl)-3-((R)-2-(4-methylthiazol-2-yl)pyrrolidine-1-carbonyl)-5-(thiazinanyl-S,S-dioxide)benzamide]	< 250	> 500	–	–	–
Cc1cc(C(=O)N[C@@H](Cc2cc(F)cc(F)c2)[C@H](O)[C@H]2CCCN2)cc(C(=O)N2CCC[C@@H]2c2nc(C)cs2)c1 [1-64, N-((1R,2S)-3-(3,5-difluorophenyl)-1-hydroxy-1-((R)-pyrrolidin-2-yl)propan-2-yl)-3-methyl-5-((R)-2-(4-methylthiazol-2-yl)pyrrolidine-1-carbonyl)benzamide]	< 250	> 500	–	–	–
Cc1csc([C@H]2CCCN2C(=O)c2cc(C(=O)N[C@@H](Cc3ccccc3)[C@H](O)[C@H]3CCCN3)cc(-n3cccc3)c2)n1 [1-16, N-((1R,2S)-1-hydroxy-3-phenyl-1-((R)-pyrrolidin-2-yl)propan-2-yl)-3-((R)-2-(4-methylthiazol-2-yl)pyrrolidine-1-carbonyl)-5-(1H-pyrrol-1-yl)benzamide]	< 250	–	500 to 1000	1000 to 5000	< 400
CCn1cc(CNC[C@@H](O)[C@H](Cc2ccccc2)NC(=O)c2cc(C)cc(C(=O)N3CCC[C@@H]3c3nc(C)co3)c2)cn1 [2-5, N-((2S,3R)-4-((1-ethyl-1H-pyrazol-4-yl)methylamino)-3-hydroxy-1-phenylbutan-2-yl)-3-methyl-5-((R)-2-(4-methyloxazol-2-yl)pyrrolidine-1-carbonyl)benzamide, reference compound]	< 250	–	< 500	1000 to 5000	> 700
Cc1csc(CN(C)C(=O)c2cccc(C(=O)N[C@@H](Cc3cc(F)cc(F)c3)[C@H](O)[C@H]3CCCN3)c2)n1 [1-41, N1-((1R,2S)-3-(3,5-difluorophenyl)-1-hydroxy-1-((R)-pyrrolidin-2-yl)propan-2-yl)-N3-methyl-N3-((4-methylthiazol-2-yl)methyl)isophthalamide]	< 250	–	> 1000	> 10000	< 400
Cc1coc([C@H]2CCCN2C(=O)c2cccc(C(=O)N[C@@H](Cc3ccccc3)[C@H](O)CNCc3cncc(C(C)(C)C)c3)c2)n1 [2-4, N-((2S,3R)-4-((5-tert-butylpyridin-3-yl)methylamino)-3-hydroxy-1-phenylbutan-2-yl)-3-((R)-2-(4-methyloxazol-2-yl)pyrrolidine-1-carbonyl)benzamide, reference compound]	< 250	–	< 500	< 1000	> 700
C[C@@H](NC(=O)c1cc(C(=O)N[C@@H](Cc2ccccc2)[C@H](O)[C@H]2CCCN2)cc(N(C)S(C)(=O)=O)c1)c1ccccc1 [1-11, N1-((1R,2S)-1-hydroxy-3-phenyl-1-((R)-pyrrolidin-2-yl)propan-2-yl)-5-(N-methylmethylsulfonamido)-N3-((R)-1-phenylethyl)isophthalamide]	< 250	–	< 500	> 10000	< 400

More lines, now with the values ahead:

Ki [1] [nM]	Ki [2] [nM]	IC50 [3] [nM]	Ki [4] [nM]	CLint scaled at 200 μM [5] [mL/min/kg]	SMILES
< 250	> 500	–	–	–	Cc1csc([C@H]2CCCN2C(=O)c2cc(I)cc(C(=O)N[C@@H](Cc3ccccc3)[C@H](O)[C@H]3CCCN3)c2)n1 [1-71, N-((1R,2S)-1-hydroxy-3-phenyl-1-((R)-pyrrolidin-2-yl)propan-2-yl)-3-iodo-5-((R)-2-(4-methylthiazol-2-yl)pyrrolidine-1-carbonyl)benzamide]
< 250	–	< 500	> 10000	< 400	Cc1coc([C@H]2CCCN2C(=O)c2cc(C(=O)N[C@@H](Cc3ccccc3)[C@H](O)[C@H]3CCCN3)cc(-c3ncco3)c2)n1 [1-17, N-((1R,2S)-1-hydroxy-3-phenyl-1-((R)-pyrrolidin-2-yl)propan-2-yl)-3-((R)-2-(4-methyloxazol-2-yl)pyrrolidine-1-carbonyl)-5-(oxazol-2-yl)benzamide]
< 250	–	500 to 1000	5000 to 10000	< 400	Cc1csc(CN(C)C(=O)c2cc(C(=O)N[C@@H](Cc3ccccc3)[C@H](O)[C@H]3CCCN3)cc(-n3cccc3)c2)n1 [1-13, N1-((1R,2S)-1-hydroxy-3-phenyl-1-((R)-pyrrolidin-2-yl)propan-2-yl)-N3-methyl-N3-((4-methylthiazol-2-yl)methyl)-5-(1H-pyrrol-1-yl)isophthalamide]
< 250	–	< 500	1000 to 5000	< 400	Cc1csc(CN(C)C(=O)c2cccc(C(=O)N[C@@H](Cc3ccccc3)[C@H](O)[C@H]3C[C@@H](OCc4ccccc4)CN3)c2)n1 [1-9, N1-((1R,2S)-1-((2R,4R)-4-(benzyloxy)pyrrolidin-2-yl)-1-hydroxy-3-phenylpropan-2-yl)-N3-methyl-N3-((4-methylthiazol-2-yl)methyl)isophthalamide]
